Measurements taken from paper PMC8066341, “Chemical Profiles, Anticancer, and Anti-Aging Activities of Essential Oils of Pluchea dioscoridis (L.) DC. and Erigeron bonariensis L” (Plants, 2021).
In brackets after ≈: the same amount, converted by molar mass.

How the values were obtained:
[1] = molecular target: T1, Porcine pancreatic elastase (Sus scrofa, UniProt P00772); assay: N-succinyl-Ala-Ala-Ala-p-nitroanilide hydrolysis, absorbance […] nm; format: biochemical
T1 construct: gene CELA1; native enzyme from pancreas (commercial)
T1 sequence (P00772 27-266): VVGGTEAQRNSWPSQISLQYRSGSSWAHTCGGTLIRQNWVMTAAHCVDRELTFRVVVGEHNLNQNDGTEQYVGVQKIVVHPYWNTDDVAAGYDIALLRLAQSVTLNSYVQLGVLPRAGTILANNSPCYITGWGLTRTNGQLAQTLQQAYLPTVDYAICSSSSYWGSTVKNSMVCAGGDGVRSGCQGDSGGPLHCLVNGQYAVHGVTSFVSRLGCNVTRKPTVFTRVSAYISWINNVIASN

[2] = molecular target: T2, mushroom tyrosinase; assay: dopachrome formation, absorbance […] nm; format: biochemical; conditions: L-tyrosine substrate (0.85 mM solution); phosphate pH 6.8; 15 min preincubation at 25 °C
T2 construct: gene PPO1

[3] = molecular target: T3, Collagenase from Clostridium histolyticum (ChC); assay: FALGPA hydrolysis, microplate absorbance; format: biochemical, Hathewaya histolytica; conditions: 50 mM tricine pH 7.5, 400 mM NaCl, 10 mM CaCl2; 15 min preincubation; FALGPA substrate
T3 construct: gene colG

O=C(O[C@@H]1Cc2c(O)cc(O)cc2O[C@@H]1c1cc(O)c(O)c(O)c1)c1cc(O)c(O)c(O)c1 [epigallocatechin gallate]
IC50 [1]: 22.4 µM | IC50 [2]: 14.37 µg/mL (≈ 31.3 µM) | IC50 [3]: 1.56 µg/mL (≈ 3.4 µM)
